≈ marks a conversion by molar mass, not a printed value. Where “and” joins values, the source holds several entries; their conditions need not be identical. Identical values can stand only once.
How the values were obtained:
rat liver GSTs = assay: In vitro GST enzyme assay (CDNB/GSH) with liver cytosolic fractions of control rats; assay type: biochemical, male Sprague–Dawley rats; conditions: CDNB substrate
Procedure: (§1) Throughout the procedure tissue fractions were kept cold (0–4 °C) by using pre-cooled homogenization medium (50 mM Tris–HCl containing 0.154 M KCl) and keeping centrifuge rotors, tissue homogenizer, measuring cylinders, beakers and centrifuge tubes in ice. Excess blood was removed from the liver by perfusing the livers with ice cold normal saline using a Pharmacia LKB pump P-1 (Pharmacia, Uppsala, Sweden) at a flow rate of 50 ml/h through the still beating heart then gently blotting with dry tissue paper. Perfusion was performed in situ to remove blood. The livers and kidneys were removed and blotted dry. The liver or kidney samples were, weighed, wet mass recorded and livers quickly transferred to a homogenizing vessel, which was kept, on ice. Homogenizing medium 50 mM Tris–HCl pH 7.4 containing 154 mM KCl was added to each sample (5 ml/g of liver). The liver or kidney samples were cut into suitable pieces and homogenized with a motor driven Potter-Elvehjem homogenizer type R2R (Heidolph Elektro KG., Kelheim, Germany). […] The final volume was recorded and “parafilm ^TM” (Sigma-Aldrich Co., Steinheim, Germany) was added to cover. […] Protein content in the liver and kidney cytosolic fractions was determined using the Lowry method. The total GST activity in cell supernatants was measured spectrophotometrically using final concentrations of 1 mM 1-chloro-2,4-dinitrobenzene (CDNB) and 1 mM glutathione, as substrates in 0.1 M potassium phosphate buffer pH 6.5, and GST (0.125 mg/ml protein). Cytosolic glutathione transferases activities were assessed using 0.5 mg/ml and 2 mg/ml enzyme dilutions for the liver and kidney samples respectively. […] GST mediated conjugation of 1-chloro-2, 4- dinitrobenzene (CDNB) to glutathione (GSH) was measured using 96-well microtitre plates in a microplate reader (Biokinetics reader EL 340 microplate, Highland Park, 998, Winsooki, VT, USA). […] After addition of CDNB, the plate was transferred to the microplate reader. The plate was read at 5-min intervals for a total of 15 min.

kidney GSTs = assay: In vitro GST enzyme assay (CDNB/GSH) with kidney cytosolic fractions of control rats; assay type: biochemical, male Sprague–Dawley rats; conditions: CDNB substrate
Procedure: as §1

IC50 (rat liver GSTs; liver cytosol from corn oil-treated control group, P. curatellifolia experiments): 10 µg/mL (≈ 33 µM) | IC50 (rat liver GSTs; liver cytosol from normal saline treated control group, P. curatellifolia experiments): 5.8 µg/mL and 6 µg/mL | IC50 (rat liver GSTs; liver cytosol from saline-treated control group, C. zeyheri experiments): 5.4 µg/mL (≈ 17.8 µM) | IC50 (kidney GSTs; kidney cytosol from corn oil-treated control group, P. curatellifolia experiments): 3.7 µg/mL (≈ 12.2 µM) | IC50 (kidney GSTs; kidney cytosol from normal saline treated control group, P. curatellifolia experiments): 7.36 µg/mL and 7.4 µg/mL | IC50 (kidney GSTs; kidney cytosol from saline-treated control group, C. zeyheri experiments): 10 µg/mL (≈ 33 µM)
Structure (SMILES): C=C(CC)C(=O)c1ccc(OCC(=O)O)c(Cl)c1Cl [ETA, ethacrynic acid]

Reference: publication PMC4960700, “In vivo and in vitro inhibition of rat liver glutathione transferases activity by extracts from Combretum zeyheri (Combretaceae) and Parinari curatellifolia (Chrysobalanaceae)” (BMC Complementary and Alternative Medicine, 2016)
